{
  "source": "patent US20260240822A1",
  "about": "“Methods and Compositions for Treating Atopic Dermatitis” (Regranion, LLC, priority 2023, published 2026)",
  "key": {"[1]": {"experiment": "Skin concentration in punch biopsies of hidradenitis suppurativa subjects, week 16", "assay_type": "in vivo, human", "conditions": "oral dosing at 250 mg; skin (16 weeks daily) vs plasma (single dose)", "from_the_text": "A 16-week treatment, randomized, double-blind, proof-of-concept study was designed to assess the safety and efficacy of Compound I compared to placebo in treating hidradenitis suppurativa. Eligible subjects completed an up-to 4-week screening phase and sequentially be randomized 2:1 to one of two cohorts, treatment cohort (n=10) or placebo-control cohort (n=5), in a 16-week treatment phase followed by a 4-week observational follow-up phase. In the 16-week treatment phase, subjects randomized to the treatment group receive 250 mg Compound I free base in the form of a tablet administered orally once daily. The 250 mg dose was selected based on the results of an earlier oncology trial conducted with doses in excess of 1000 mg/day as a safe minimal dose from which to conduct dose escalation if required. Subjects randomized to the placebo-control group receive placebo treatment once daily (microcrystalline cellulose, mannitol, crospovidone, Opadry II red, magnesium stearate, colloidal silicon dioxide).\nThe accumulation of Compound I in the skin of human hidradenitis suppurativa of subjects in the treatment cohort was determined. […] FIG. 7 is a graph showing the concentrations of Compound I found in the biopsied tissues in subjects grouped according to their clinical response to Compound I therapy. […]"}, "[2]": {"tested_on": "primary normal human epidermal keratinocytes (NHEKs) stimulated with TNF/IFNγ or TNF/IL-4", "experiment": "RT-qPCR of AD-related gene expression in cytokine-stimulated primary human keratinocytes", "assay_type": "cell-based", "conditions": "5 μM, 24 hours", "procedure": "(§1) Primary normal human epidermal keratinocytes (NHEKs) were isolated from nine healthy donors as described previously.^13 The keratinocytes were plated in 6-well plates and cultured in keratinocyte SFM (Gibco, ThermoFisher Scientific, Waltham, MA, USA) supplemented with growth factors and 5 μg/ml Gentamicin (Gibco) at 37° C. in a humidified incubator containing 5% CO2 until 60-70% confluency. Subsequently, the keratinocytes were starved for 24 hours in keratinocyte SFM medium without growth factors before the initiation of experiments.\nKeratinocytes were washed with phosphate-buffered saline (PBS; Gibco) followed by RNA extraction using SV 96 Total RNA Isolation System (Promega, Madison, WI, USA) per the manufacturers' instructions. NanoDrop 2000 Spectrophotometer (ThermoFisher) was used to determine the RNA concentration and purity.\ncDNA was generated using total RNA, TaqMan Reverse Transcription Reagents with random hexamers (ThermoFisher) and Peltier Thermal Cycler-200 (MJ Research Inc, Waltham, MA, USA) following the manufacturer's instructions. […]\nThe statistical significance threshold was set at P<0.05. Differences between treatment groups in clinical endpoints, mRNA (qPCR) and protein levels (western blot) were analysed by unpaired t-tests for mice and paired t-tests for keratinocytes. […]"}, "[3]": {"tested_on": "STAT1", "experiment": "Western blot of STAT1 phosphorylation in stimulated NHEKs", "assay_type": "cell-based, human", "conditions": "5 μM, 1 hour", "procedure": "as §1\n(§2) PBS-washed keratinocytes were added cell lysis buffer with complete Protease Inhibitor Cocktail and phenylmethylsulphonyl fluoride (Sigma-Aldrich). […] The protein concentration was determined by Bradford Protein Assay.\n(§3) A total of 20 μg protein extract for each sample was loaded on 10% mini-PROTEAN TGX PreCast Gel (Bio-Rad, Hercules, CA, USA) and separated by gel electrophoresis using Mini Trans-Blot Cell (Bio-Rad). […] Protein bands were detected with an enhanced chemiluminescence (ECL) reaction using Clarity Western ECL Substrate (Bio-Rad) and digitally imaged with C-DiGit Blot Scanner (LI-COR, Lincoln, NE, USA). To normalize the protein expression to β-actin levels, the membranes were stripped and reprobed with an anti-β-actin antibody (A1978; Sigma-Aldrich), which was detected by HRP-conjugated anti-mouse IgG (p0447; Dako, Glostrup, Denmark). […]"}, "[4]": {"tested_on": "stimulated NHEKs", "conditions": "previous concentration studies; used concentration 5 μM; cited from earlier work"}, "[5]": {"tested_on": "AD-like inflammation", "experiment": "MC903 model at independent testing facility (alternative MC903 regimen)", "assay_type": "in vivo, BALB/c mice", "conditions": "oral 20, 50 and 100 mg/kg", "procedure": "To evaluate the feasibility of orally administered Compound I, mice were challenged with 2.5 nmol MC903 for six days and administered 100 mg/kg Compound I by oral gavage once daily throughout the experiment."}, "[6]": {"tested_on": "p65 (subunit of NF-κB)", "experiment": "Western blot of p65 phosphorylation in stimulated NHEKs", "assay_type": "cell-based, human", "conditions": "5 μM, 1 hour", "procedure": "as §1, §2, §3"}, "[7]": {"tested_on": "STAT6", "experiment": "Western blot of STAT6 phosphorylation in stimulated NHEKs", "assay_type": "cell-based, human", "conditions": "5 μM, TNF/IL-4 stimulation, 1 hour", "procedure": "as §1, §2, §3"}, "[8]": {"experiment": "Plasma pharmacokinetics after single oral dose in healthy male subjects", "assay_type": "in vivo, human", "conditions": "single oral dose 250 mg, read-out: Cmax (median)", "procedure": "The skin accumulation found in this study was compared to plasma levels of Compound I determined in a previous study in healthy human volunteers. Six healthy male subjects were given a single oral dose of 250 mg Compound I, and plasma samples were collected pre-dose and at 0.25, 0.5, 0.75, 1, 1.5, 2, 2.5, 3, 4, 6, 8, 10, 12, 18, 24, 30, 36, 48, 72 and 96 hours after dosing."}, "[9]": {"tested_on": "STAT3", "experiment": "Western blot of STAT3 phosphorylation in stimulated NHEKs", "assay_type": "cell-based, human", "conditions": "5 μM, TNF/IFNγ or TNF/IL-4 stimulation, 1 hour", "procedure": "as §1, §2, §3"}, "[10]": {"conditions": "psoriasis and hidradenitis suppurativa patients; cited from earlier work"}, "[11]": {"tested_on": "MC903-induced AD-like skin inflammation", "experiment": "MC903-induced atopic dermatitis mouse model", "assay_type": "in vivo, Female Balb/cAnNRj mice", "conditions": "for body weight loss: topical treatment, MC903 model", "procedure": "Punch biopsies were stored in 750 μL RNAlater-ICE (ThermoFisher) at −80° C. for 20 minutes and overnight at −20° C. Then, the biopsies were added to 175 μL SV RNA lysis buffer with β-mercaptoethanol (SV Total RNA Isolation System; Promega) followed by homogenization using TissueLyser (Qiagen, Hilden, Germany). The remaining steps including RNA purification and DNase treatment were conducted following the manufacturer's instructions.\ncDNA was generated using total RNA, TaqMan Reverse Transcription Reagents with random hexamers (ThermoFisher) and Peltier Thermal Cycler-200 (MJ Research Inc, Waltham, MA, USA) following the manufacturer's instructions. Real-time PCR was carried out with 20 ng cDNA per 20 μL reaction in StepOnePlus Real-Time PCR system (ThemoFisher) using TaqMan Universal PCR Master Mix, primers and probes (ThermoFisher) for TNF (Hs00174128_m1), ILIB (Hs01555410_m1), IL6 (Hs00174131_m1), TSLP (Hs00263639_m1), CCL17 (Hs00171074_m1), CCL22 (Hs01574247_m1), Il1b (Mm00434228_m1), Il4 (Mm00445259_m1), Il6 (Mm00446190_m1), Il13 (Mm00434204_m1) RPLPO (Hs99999902_m1) and Gapdh (Mm99999915_m1). Three technical replicates for each sample underwent real-time PCR; 2 minutes at 50° C. and 10 minutes at 95° C. followed by 40 cycles of 15 seconds at 95° C. and 1 minute at 60° C. The standard curve method with StepOne Software v2.1 and reference genes (RPLPO and Gapdh) were used to obtain normalised relative expression levels of target genes.^17\nFemale Balb/cAnNRj (8 weeks old) mice were purchased from Janvier Labs (Le Genest-Saint-Isle, France), and housed in animal facilities at 19-25° C. with 12-hour light/dark cycles and free access to laboratory rodent diet and water. The mice had at least 1 week acclimation period before the experiments started.\nMice were randomly divided to receive: vehicle and drug-vehicle (negative control); MC903 (MedChemExpress, Monmouth Junction, NJ, USA) and drug-vehicle (disease control); MC903 and topical or oral Compound I (Compound I treatment groups); or MC903 and topical dexamethasone (positive control; purchased from Sigma-Aldrich). Four to eight mice were allocated to each group, totalling 76 mice for all experiments.\nTo induce AD-like skin inflammation, 1 or 2.5 nmol of MC903 in 25 μL absolute ethanol was topically applied once daily to the ventral and dorsal surface of the right ear for six consecutive days. After MC903 challenge, the mice were treated with topical Compound I (1 mg in 25 μL ethanol), oral Compound I (100 mg/kg), topical dexamethasone (20 nmol in 25 μl ethanol), or drug-vehicle (topical ethanol or oral 5% kleptose [HPB, Roquette Pharma, Lestrem, France]). The topical treatments were applied 2 hours post-MC903 challenge, whereas the oral treatments were administered by oral gavage immediately post-MC903 challenge. At the end of the experiment on day 9, clinical photos of the ears were taken and the mice were euthanised by cervical dislocation. Two punch biopsies (4 mm) from the ear were collected for RNA isolation and histological assessment. Ear thickness, the primary clinical endpoint for inflammation, was measured daily with a digital calliper (Mitutoyo Corporation, Kawasaki, Japan), and body weight was measured throughout the study to monitor the welfare of mice. During the experimental procedures, the mice were anesthetized with 2% isoflurane.\nFour-millimetres punch biopsies from the ear were fixed in 4% formaldehyde overnight at 4° C., paraffin-embedded, and serially sliced into 4 μm sections subjected to staining procedures. For haematoxylin & eosin (HE) staining, a standard protocol was followed. To detect mast cells, sections were stained with 0.1% toluidine blue solution (Sigma-Aldrich) at pH 2.3 and room temperature for 3 minutes. […]"}, "[12]": {"conditions": "topical, 1 nmol MC903, ear biopsies"}},
  "data": [
    {"smiles": "CN(C)c1cc2c(cc1Sc1nc3c(N)nccc3n1CCNCC(C)(C)C)OCO2", "note": "[Compound I]", "values": [
      {"measurement": "accumulation in the skin relative to plasma", "setting": "[1]", "value": "approximately 100,000 fold"},
      {"measurement": "expression of AD-associated cytokines (TNF, IL1B, IL6) and chemokines (CCL17, CCL22)", "setting": "[2]; TNF/IFNγ or TNF/IL-4 stimulation, vs stimulated/vehicle- and stimulated/dexamethasone-treated NHEKs", "value": "robustly inhibited the expression"},
      {"measurement": "expression of TSLP", "setting": "[2]; stimulated NHEKs", "value": "suppressed"},
      {"measurement": "phosphorylation of STAT1", "setting": "[3]", "value": "no significant effects"},
      {"measurement": "toxicity in stimulated NHEKs", "setting": "[4]", "value": "3-6%"},
      {"measurement": "alleviation of AD-like inflammation", "setting": "[5]", "value": "dose-dependent improvement"},
      {"measurement": "phosphorylation of p65", "setting": "[6]", "value": "no significant effects"},
      {"measurement": "reduction of phosphorylation of STAT6", "setting": "[7]", "value": "~ 20%"},
      {"measurement": "Cmax", "setting": "[8]", "value": 46, "unit": "nM"},
      {"measurement": "phosphorylation of STAT3", "setting": "[9]", "value": "significantly suppressed"},
      {"measurement": "tolerability of oral treatment", "setting": "[10]", "value": "well-tolerated"},
      {"measurement": "erythema", "setting": "[11]; oral 100 mg/kg, 2.5 nmol MC903", "value": "visibly reduced erythema"},
      {"measurement": "reduction of ear thickening compared with drug-vehicle", "setting": "[11]; oral gavage 100 mg/kg once daily, 2.5 nmol MC903", "value": 28, "unit": "%"},
      {"measurement": "reduction in ear thickness compared with drug-vehicle", "setting": "[11]; topical 1 mg once daily, 1 nmol MC903, day 9", "value": 55, "unit": "%"},
      {"measurement": "suppression of MC903-induced ear thickening", "setting": "[11]; topical 1 mg once daily, 2.5 nmol MC903, day 9", "value": 50, "unit": "%"},
      {"measurement": "body weight loss", "setting": "[11]", "value": "significantly less weight loss compared with dexamethasone"},
      {"measurement": "cytokine expression of Il1b, Il4, Il6 and Il13 in ear tissue compared with drug-vehicle", "setting": "[11]; topical, 1 nmol MC903, RNA sequencing and qPCR", "value": "significantly reduced"},
      {"measurement": "erythema", "setting": "[11]; topical, 1 nmol MC903, day 9", "value": "visibly reduced erythema"},
      {"measurement": "epidermal and dermal thickness (histology)", "setting": "[11]; [12]", "value": "significantly decreased"},
      {"measurement": "immune cell infiltration into the skin (mast cells, Ly6g+ neutrophils, CD4+ T-cells)", "setting": "[11]; [12]", "value": "significantly suppressed"},
      {"measurement": "total number of cells within histological sections", "setting": "[11]; [12]", "value": "significantly reduced"},
      {"measurement": "reduction of ear thickness", "setting": "[11]; topically delivered, summary of 1 and 2.5 nmol MC903 experiments", "value": "50-54%"}
    ]},
    {"smiles": "C[C@@H]1C[C@H]2[C@@H]3CCC4=CC(=O)C=C[C@]4(C)[C@@]3(F)[C@@H](O)C[C@]2(C)[C@@]1(O)C(=O)CO", "note": "[dexamethasone, reference compound]", "values": [
      {"measurement": "body weight loss", "setting": "[11]", "value": "lost significantly more weight than Compound I-treated mice"}
    ]}
  ]
}
